Experimental data: US11993599B2, “Therapeutic compounds” (Genentech, Inc., priority 2021, dated 2024)

Key:
Type in all cases: cell-based
BRG1 = molecular target: T1, BRG1 (Homo sapiens, UniProt P51532); experiment: Immunofluorescence assay for BRG1 degradation in SW1573 cells; conditions: 20 hours incubation; for DC50: immunofluorescence mean nuclear signal, read-out: BRG1 IF Degradation IC50; for Dmax: SW1573, 20 h, normalized to a known degrader control, read-out: BRG1 IF Degradation Sinf (%)
T1 construct: either BRM primary antibody (Cell signaling Cat #11966) or BRG primary antibody (Abcam, ab 110641); endogenous in cells; host or cells: SW1573
T1 sequence (P51532 whole entry): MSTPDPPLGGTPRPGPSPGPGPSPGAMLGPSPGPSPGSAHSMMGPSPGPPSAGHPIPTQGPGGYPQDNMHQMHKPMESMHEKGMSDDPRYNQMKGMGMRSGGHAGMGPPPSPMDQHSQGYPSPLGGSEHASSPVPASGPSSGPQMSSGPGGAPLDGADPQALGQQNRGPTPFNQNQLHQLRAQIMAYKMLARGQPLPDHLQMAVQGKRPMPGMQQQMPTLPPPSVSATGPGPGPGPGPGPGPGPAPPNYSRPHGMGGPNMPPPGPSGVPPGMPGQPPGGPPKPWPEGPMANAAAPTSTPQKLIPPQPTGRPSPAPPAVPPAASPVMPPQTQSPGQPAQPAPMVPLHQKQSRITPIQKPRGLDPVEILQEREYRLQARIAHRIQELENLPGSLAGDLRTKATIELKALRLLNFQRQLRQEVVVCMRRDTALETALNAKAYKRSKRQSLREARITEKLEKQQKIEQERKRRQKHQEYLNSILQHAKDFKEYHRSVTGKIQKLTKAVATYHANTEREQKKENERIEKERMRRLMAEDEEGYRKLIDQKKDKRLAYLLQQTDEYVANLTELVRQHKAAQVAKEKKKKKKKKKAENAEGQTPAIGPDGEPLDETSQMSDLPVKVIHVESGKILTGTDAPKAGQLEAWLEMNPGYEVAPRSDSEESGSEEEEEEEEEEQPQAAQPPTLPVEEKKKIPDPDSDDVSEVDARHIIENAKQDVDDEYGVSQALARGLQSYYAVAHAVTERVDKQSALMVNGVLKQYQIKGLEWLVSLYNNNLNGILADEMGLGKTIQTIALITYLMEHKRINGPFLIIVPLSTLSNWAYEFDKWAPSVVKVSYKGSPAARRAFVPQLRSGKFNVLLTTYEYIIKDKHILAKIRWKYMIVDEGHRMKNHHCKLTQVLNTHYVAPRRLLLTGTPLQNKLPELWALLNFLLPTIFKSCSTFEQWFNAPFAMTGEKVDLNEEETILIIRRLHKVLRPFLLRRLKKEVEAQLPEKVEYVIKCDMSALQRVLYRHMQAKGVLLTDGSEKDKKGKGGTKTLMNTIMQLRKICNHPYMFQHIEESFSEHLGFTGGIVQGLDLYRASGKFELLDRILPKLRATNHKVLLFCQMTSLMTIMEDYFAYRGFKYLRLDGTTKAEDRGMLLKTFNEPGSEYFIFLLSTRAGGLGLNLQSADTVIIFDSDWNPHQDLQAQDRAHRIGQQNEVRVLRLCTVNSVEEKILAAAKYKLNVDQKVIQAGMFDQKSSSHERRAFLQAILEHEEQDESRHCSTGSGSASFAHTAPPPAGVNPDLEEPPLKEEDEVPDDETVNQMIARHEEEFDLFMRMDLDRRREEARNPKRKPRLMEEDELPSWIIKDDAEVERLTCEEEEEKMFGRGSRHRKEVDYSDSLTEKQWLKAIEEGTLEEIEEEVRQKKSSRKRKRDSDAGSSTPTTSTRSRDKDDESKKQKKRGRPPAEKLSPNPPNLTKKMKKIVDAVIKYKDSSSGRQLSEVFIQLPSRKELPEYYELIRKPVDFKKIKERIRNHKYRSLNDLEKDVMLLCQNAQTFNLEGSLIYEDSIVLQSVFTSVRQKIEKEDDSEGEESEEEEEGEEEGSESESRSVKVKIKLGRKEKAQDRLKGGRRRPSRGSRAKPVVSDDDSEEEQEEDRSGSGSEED
How it was run: (§1)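 Degradation measured as loss of nuclear BRM or BRG1 staining in SW1573 cells after 20 h compound exposure. Signal per cell was imaged and normalized to a known degrader; curves with floating maximum yielded IC50 and Dmax.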

BRM [1] = molecular target: T2, BRM (Homo sapiens, UniProt P51531); experiment: Immunofluorescence assay for BRM degradation in SW1573 cells; set-up: treated overnight at 4° C. with either BRM primary antibody (Cell signaling Cat #11966) or BRG primary antibody; endogenous in cells; host or cells: SW1573; conditions: 20 hours incubation; for DC50: immunofluorescence mean nuclear signal, read-out: BRM IF Degradation IC50; for BRM IF Degradation Sinf (%): normalized to a known degrader control
T2 sequence (P51531 whole entry): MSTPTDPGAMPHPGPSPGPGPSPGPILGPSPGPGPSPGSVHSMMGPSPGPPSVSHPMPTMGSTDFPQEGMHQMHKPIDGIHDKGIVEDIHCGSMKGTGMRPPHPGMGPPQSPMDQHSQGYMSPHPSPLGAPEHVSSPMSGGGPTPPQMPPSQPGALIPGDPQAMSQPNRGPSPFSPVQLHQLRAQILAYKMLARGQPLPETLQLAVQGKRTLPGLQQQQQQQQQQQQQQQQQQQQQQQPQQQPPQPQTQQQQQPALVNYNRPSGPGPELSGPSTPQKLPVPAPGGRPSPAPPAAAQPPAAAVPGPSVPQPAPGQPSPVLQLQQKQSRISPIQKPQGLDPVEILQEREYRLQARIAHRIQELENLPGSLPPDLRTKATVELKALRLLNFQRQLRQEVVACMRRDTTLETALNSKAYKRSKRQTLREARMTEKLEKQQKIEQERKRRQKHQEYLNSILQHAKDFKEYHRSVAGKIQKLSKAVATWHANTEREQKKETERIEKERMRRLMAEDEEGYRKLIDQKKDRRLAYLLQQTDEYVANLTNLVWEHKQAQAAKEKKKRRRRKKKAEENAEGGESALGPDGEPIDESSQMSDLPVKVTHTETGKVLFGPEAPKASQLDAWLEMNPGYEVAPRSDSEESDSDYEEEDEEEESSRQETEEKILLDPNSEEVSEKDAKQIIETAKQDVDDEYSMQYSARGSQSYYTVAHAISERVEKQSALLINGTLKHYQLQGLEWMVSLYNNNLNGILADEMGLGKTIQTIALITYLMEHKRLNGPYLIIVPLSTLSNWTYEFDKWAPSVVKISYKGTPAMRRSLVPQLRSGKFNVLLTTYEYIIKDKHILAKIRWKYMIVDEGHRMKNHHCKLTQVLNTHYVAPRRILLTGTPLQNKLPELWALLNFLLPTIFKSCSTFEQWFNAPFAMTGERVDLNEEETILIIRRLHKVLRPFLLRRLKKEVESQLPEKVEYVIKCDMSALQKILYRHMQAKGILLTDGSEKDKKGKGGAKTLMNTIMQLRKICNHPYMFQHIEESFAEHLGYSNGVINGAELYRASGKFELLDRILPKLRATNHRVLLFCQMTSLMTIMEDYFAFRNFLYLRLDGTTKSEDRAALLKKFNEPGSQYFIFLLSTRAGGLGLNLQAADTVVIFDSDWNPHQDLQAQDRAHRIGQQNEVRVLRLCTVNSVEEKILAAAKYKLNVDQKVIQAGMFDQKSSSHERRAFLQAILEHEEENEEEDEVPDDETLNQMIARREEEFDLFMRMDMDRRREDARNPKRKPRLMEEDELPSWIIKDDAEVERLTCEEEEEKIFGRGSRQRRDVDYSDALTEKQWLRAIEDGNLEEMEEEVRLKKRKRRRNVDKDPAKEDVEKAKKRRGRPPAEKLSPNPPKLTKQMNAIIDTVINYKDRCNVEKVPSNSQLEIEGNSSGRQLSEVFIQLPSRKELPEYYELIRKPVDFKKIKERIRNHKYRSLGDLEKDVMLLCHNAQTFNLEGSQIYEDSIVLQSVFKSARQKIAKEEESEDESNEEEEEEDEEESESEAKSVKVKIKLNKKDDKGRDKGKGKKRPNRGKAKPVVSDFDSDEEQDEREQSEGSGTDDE
How it was run: as §1

BRM [2] = molecular target: T2, BRM; experiment: HiBIT nanoluciferase complementation screen for BRM degraders; conditions: 18 hours, BRM-HiBIT KI Hela cells, luminescence normalized: DMSO only = 0%, no cells = −100%; for Median HiBiT activity 1 μM: compound 1 μM; for Median HiBiT activity 10 μM: compound 10 μM
Text: Example B-1: HiBIT Nanoluciferase Complementation Screen for BRM Degraders
To assess BRM degradation, compounds were screened for their effect of BRM levels using the HiBIT nanoluciferase complementation strategy developed at Promega. In brief, a HELA cell line that was genetically modified via CRISPR/CAS9 was used to fuse the HiBIT sequence at the 3′ end of BRM (BRM-HiBIT KI Hela). BRM protein levels were then detected using the Nano-Glo HiBIT lytic detection reagent (Promega).
The screened compounds were plated into a white 384-well plate at 10 μM and 1 μM in 25 nL DMSO using an Echo dispenser (Labcyte). BRM-HiBIT KI Hela cells were seeded in the compound plate at 5000 cell per well at 25 μl in DMEM growth media (containing 10% FBS, 1% Glutamax (GIBCO cat #31053-028), lx Penicillin-Streptomycin (ROCHE, cat #1107444001), 4.5 g/L D-Glucose, and no phenol red). After incubation with compounds for 18 hours at 37° C., cell viability was assessed by the addition of 5 μl Cell Titer-Fluor reagent (Promega). After 30 s of mixing on an orbital shaker, and 30 minutes incubation at 37° C., fluorescence was measured with an INFINITE F500 (Tecan) (380-400 nm excitation, 505 nm emission). Next, to assess BRM HiBIT levels, 30 μl of Nano-Glo HiBIT lytic detection reagent (Promega) containing 1:50 Nano-Glo HiBIT lytic substrate and 1:100 LgBIT protein per ml of lytic buffer was added. After shaking on an orbital shaker at 350 rpm for 10 minutes, luminescence was measured on the INFINITE F500 (Tecan). To assess compound effects, luminescence signal was normalized with the mean of wells treated with DMSO only set to 0% and the mean of wells containing no cells set to −100%. Note that, in Table 4, the “Compound Number” corresponds to that used in Table 1.

Compound | DC50 (BRG1) [nM] | Dmax (BRG1) [%] | DC50 (BRM [1]) [nM] | BRM IF Degradation Sinf (%) (BRM [1]) | Median HiBiT activity 1 μM (BRM [2]) [%] | Median HiBiT activity 10 μM (BRM [2]) [%]
Nc1nnc(-c2ccccc2O)cc1N1CC2CCC(C1)N2c1ccnc(C#CCCN2CCNCC2)c1 [Compound 1, 2-(6-amino-5-(8-(2-(4-(piperazin-1-yl)but-1-yn-1-yl)pyridin-4-yl)-3,8-diazabicyclo[3.2.1]octan-3-yl)pyridazin-3-yl)phenol] | > 100 | 71 to 120 | 10 to 100 | F (F indicates −71%-−120%) | −87.0122 | −81.2914
Nc1nnc(-c2ccccc2O)cc1N1CC2CCC(C1)N2c1ccnc(C#CCN2CCCC2)c1 [Compound 2, 2-(6-amino-5-(8-(2-(3-(pyrrolidin-1-yl)prop-1-yn-1-yl)pyridin-4-yl)-3,8-diazabicyclo[3.2.1]octan-3-yl)pyridazin-3-yl)phenol] | < 10 | 30 to 70 | < 10 | E (E indicates −30%-−70%) | −73.6048 | −28.0898
CN(CC#Cc1cc(N2C3CCC2CN(c2cc(-c4ccccc4O)nnc2N)C3)ccn1)CCO [Compound 3, 2-(6-amino-5-(8-(2-(3-((2-hydroxyethyl)(methyl)amino)prop-1-yn-1-yl)pyridin-4-yl)-3,8-diazabicyclo[3.2.1]octan-3-yl)pyridazin-3-yl)phenol] | 10 to 100 | 30 to 70 | 10 to 100 | E (E indicates −30%-−70%) | −68.4262 | −39.6172
Nc1nnc(-c2ccccc2O)cc1N1CC2CCC(C1)N2c1ccnc(C#CCOCCO)c1 [Compound 4, 2-(6-amino-5-(8-(2-(3-(2-hydroxyethoxy)prop-1-yn-1-yl)pyridin-4-yl)-3,8-diazabicyclo[3.2.1]octan-3-yl)pyridazin-3-yl)phenol] | 10 to 100 | 0 to 30 | 10 to 100 | E (E indicates −30%-−70%) | −65.5436 | −51.5968
CCN(CC)CC#Cc1cc(N2C3CCC2CN(c2cc(-c4ccccc4O)nnc2N)C3)ccn1 [Compound 5, 2-(6-amino-5-(8-(2-(3-(diethylamino)prop-1-yn-1-yl)pyridin-4-yl)-3,8-diazabicyclo[3.2.1]octan-3-yl)pyridazin-3-yl)phenol] | < 10 | 30 to 70 | < 10 | E (E indicates −30%-−70%) | −63.6385 | −31.0597
Nc1nnc(-c2ccccc2O)cc1N1CC2CCC(C1)N2c1ccnc(C#CC2CNC2)c1 [Compound 6, 2-(6-amino-5-(8-(2-(azetidin-3-ylethynyl)pyridin-4-yl)-3,8-diazabicyclo[3.2.1]octan-3-yl)pyridazin-3-yl)phenol] | > 100 | 0 to 30 | 10 to 100 | E (E indicates −30%-−70%) | −61.1458 | −67.7912
Nc1nnc(-c2ccccc2O)cc1N1CC2CCC(C1)N2c1ccnc(C#CC2CNCCO2)c1 (stereo not shown) [Compound 7, 2-(6-amino-5-(8-(2-(morpholin-2-ylethynyl)pyridin-4-yl)-3,8-diazabicyclo[3.2.1]octan-3-yl)pyridazin-3-yl)phenol] | > 100 | – | < 10 | E (E indicates −30%-−70%) | −56.5569 | −25.5864
Nc1nnc(-c2ccccc2O)cc1N1CC2CCC(C1)N2c1ccnc(C#CCC2CCNC2)c1 (stereo not shown) [Compound 34, 2-(6-amino-5-(8-(2-(3-(pyrrolidin-3-yl)prop-1-yn-1-yl)pyridin-4-yl)-3,8-diazabicyclo[3.2.1]octan-3-yl)pyridazin-3-yl)phenol] | – | – | > 100 | – | −7.217 | −29.4355
Nc1nnc(-c2ccccc2O)cc1N1CC2CCC(C1)N2c1ccnc(C#CCN2CCCCC(O)C2)c1 (stereo not shown) [Compound 242, 1-[3-[4-[3-[3-amino-6-(2-hydroxyphenyl)pyridazin-4-yl]-3,8-diazabicyclo[3.2.1]octan-8-yl]-2-pyridyl]prop-2-ynyl]azepan-3-ol] | < 10 | 30 to 70 | < 10 | F (F indicates −71%-−120%) | – | –
CC1(F)CCCCN(CC#Cc2cc(N3C4CCC3CN(c3cc(-c5ccccc5O)nnc3N)C4)ccn2)C1 (stereo not shown) [Compound 243, 2-[6-amino-5-[8-[2-[3-(3-fluoro-3-methyl-azepan-1-yl)prop-1-ynyl]-4-pyridyl]-3,8-diazabicyclo[3.2.1]octan-3-yl]pyridazin-3-yl]phenol] | < 10 | 30 to 70 | 10 to 100 | F (F indicates −71%-−120%) | – | –
CC1(O)CCCN(CC#Cc2cc(N3C4CCC3CN(c3cc(-c5ccccc5O)nnc3N)C4)ccn2)CC1 (stereo not shown) [Compound 244, 1-[3-[4-[3-[3-amino-6-(2-hydroxyphenyl)pyridazin-4-yl]-3,8-diazabicyclo[3.2.1]octan-8-yl]-2-pyridyl]prop-2-ynyl]-4-methyl-azepan-4-ol] | < 10 | 30 to 70 | 10 to 100 | E (E indicates −30%-−70%) | – | –
Nc1nnc(-c2ccccc2O)cc1N1CC2CCC(C1)N2c1ccnc(C#CCN2CCCCCC2)n1 [Compound 245, 2-(6-amino-5-(8-(2-(3-(azepan-1-yl)prop-1-yn-1-yl)pyrimidin-4-yl)-3,8-diazabicyclo[3.2.1]octan-3-yl)pyridazin-3-yl)phenol] | < 10 | 30 to 70 | < 10 | F (F indicates −71%-−120%) | – | –
Nc1nnc(-c2ccccc2O)cc1N1CC2CCC(C1)N2c1cnnc(C#CCN2CCCCCC2)c1 [Compound 246, 2-(6-amino-5-(8-(6-(3-(azepan-1-yl)prop-1-yn-1-yl)pyridazin-4-yl)-3,8-diazabicyclo[3.2.1]octan-3-yl)pyridazin-3-yl)phenol] | < 10 | 71 to 120 | 10 to 100 | F (F indicates −71%-−120%) | – | –
Nc1nnc(-c2ccccc2O)cc1N1CC2CCC(C1)N2c1cc(C#CCN2CCCCCC2)ncn1 [Compound 247, 2-(6-amino-5-(8-(6-(3-(azepan-1-yl)prop-1-yn-1-yl)pyrimidin-4-yl)-3,8-diazabicyclo[3.2.1]octan-3-yl)pyridazin-3-yl)phenol] | < 10 | 71 to 120 | < 10 | F (F indicates −71%-−120%) | – | –
Nc1nnc(-c2ccccc2O)cc1N1CCC2(CCN(c3ccnc(C#CCN4CCCCCC4)c3)CC2)CC1 [Compound 249, 2-(6-amino-5-(9-(2-(3-(azepan-1-yl)prop-1-yn-1-yl)pyridin-4-yl)-3,9-diazaspiro[5.5]undecan-3-yl)pyridazin-3-yl)phenol] | > 100 | – | < 10 | E (E indicates −30%-−70%) | – | –
Nc1nnc(-c2ccccc2O)cc1N1CCC2(CCN(c3ccnc(C#CCN4CCCCCC4)c3)C2)CC1 [Compound 250, 2-(6-amino-5-(2-(2-(3-(azepan-1-yl)prop-1-yn-1-yl)pyridin-4-yl)-2,8-diazaspiro[4.5]decan-8-yl)pyridazin-3-yl)phenol] | 10 to 100 | 30 to 70 | < 10 | E (E indicates −30%-−70%) | – | –
Nc1nnc(-c2ccccc2O)cc1N1CC2(CN(c3ccnc(C#CCN4CCCCCC4)c3)C2)C1 [Compound 251, 2-[6-amino-5-[6-[2-[3-(azepan-1-yl)prop-1-ynyl]-4-pyridyl]-2,6-diazaspiro[3.3]heptan-2-yl]pyridazin-3-yl]phenol] | 10 to 100 | 30 to 70 | < 10 | E (E indicates −30%-−70%) | – | –
